Molecular target: Aβ(1–42) oligomers (Homo sapiens, UniProt P05067)
Experiment: Short time oligomer dissociation assay
Type: biochemical
Conditions: 2h; 50 µM, 25 µM and 12.5 µM

Sequence of Aβ(1–42) oligomers (P05067 672-713): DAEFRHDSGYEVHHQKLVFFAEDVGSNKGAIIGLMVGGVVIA

- Oligomer dissociation in short time assay: does result in disassembly
Compound: O=C(O)c1cc(O)ccc1O [2,5-dihydroxybenzoic acid]
